Where a chain is given by its changes, count along the chain named. Numbers in names are those of the source. Read-outs that look alike come from different tables or passages of the source.

The term stoichiometry N denotes the number of molecules, sites or subunits per partner or assembly.

Data set [1] deals with T1, PANX1 (PANX1WT) (Homo sapiens, UniProt Q96RD7, R75D/W74R).
T1 construct: full-length; C-terminal TEV site-eGFP-8xHis, GFP/His cut by TEV for purified protein; HEK293S GnTI- (BacMam), GDN-solubilised homoheptamer; transiently transfected HEK293 for patch clamp
The data set is described as follows: microscale thermophoresis. Format: binding. For orientation: In MST a laser heats a spot of the sample, and binding alters the fluorescence response.

Data set [2] deals with T2, PANX3 (PANX3WT) (Homo sapiens, UniProt Q96QZ0).
T2 construct: full-length, 392 residues; C-terminal TEV site-eGFP-8xHis, GFP/His cut by TEV for purified protein; HEK293S GnTI- (BacMam), GDN-solubilised homoheptamer; transiently transfected HEK293 for patch clamp
T2 sequence (Q96QZ0 1-392): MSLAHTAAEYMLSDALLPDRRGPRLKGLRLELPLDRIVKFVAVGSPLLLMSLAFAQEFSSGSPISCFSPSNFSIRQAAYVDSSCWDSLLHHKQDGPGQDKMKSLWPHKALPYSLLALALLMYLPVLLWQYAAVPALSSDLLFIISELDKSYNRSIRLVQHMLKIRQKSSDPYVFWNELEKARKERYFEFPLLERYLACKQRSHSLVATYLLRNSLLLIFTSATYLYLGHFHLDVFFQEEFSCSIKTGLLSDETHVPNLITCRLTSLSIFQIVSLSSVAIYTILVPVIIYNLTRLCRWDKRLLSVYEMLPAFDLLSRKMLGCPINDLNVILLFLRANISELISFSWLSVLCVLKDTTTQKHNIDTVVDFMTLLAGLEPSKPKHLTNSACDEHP
Nature of the data set: microscale thermophoresis. Format: binding. The note with it: read-out: affinity.

For data set [3], the target named is T3, PANX1 (PANX1WT) (Homo sapiens, UniProt Q96RD7, K24A).
T3 construct: full-length; C-terminal TEV site-eGFP-8xHis, GFP/His cut by TEV for purified protein; HEK293S GnTI- (BacMam), GDN-solubilised homoheptamer; transiently transfected HEK293 for patch clamp
The data set is described as follows: microscale thermophoresis. Format: binding.

The target of data set [4] is T4, PANX1 (PANX1WT) (Homo sapiens, UniProt Q96RD7, R217H).
T4 construct: full-length; C-terminal TEV site-eGFP-8xHis, GFP/His cut by TEV for purified protein; HEK293S GnTI- (BacMam), GDN-solubilised homoheptamer; transiently transfected HEK293 for patch clamp
Nature of the data set: microscale thermophoresis. The conditions noted are these: read-out: apparent binding affinity.

For data set [5], the target named is T5, PANX1 (PANX1WT) (Homo sapiens, UniProt Q96RD7).
T5 construct: full-length; C-terminal TEV site-eGFP-8xHis, GFP/His cut by TEV for purified protein; HEK293S GnTI- (BacMam), GDN-solubilised homoheptamer; transiently transfected HEK293 for patch clamp
Nature of the data set: microscale thermophoresis. Format: binding.

Data set [6] has as its target T6, PANX1 (PANX1WT) (Homo sapiens, UniProt Q96RD7, R75A).
T6 construct: full-length; C-terminal TEV site-eGFP-8xHis, GFP/His cut by TEV for purified protein; HEK293S GnTI- (BacMam), GDN-solubilised homoheptamer; transiently transfected HEK293 for patch clamp
The data set is described as follows: microscale thermophoresis. The note with it: read-out: binding affinity.

In data set [7] the target is T2, PANX3 (PANX3WT). Nature of the data set: whole-cell patch clamp, transfected HEK293. Format: cell-based. The note with it: pH 7.4, 23 °C; 100 µM in bath. For orientation: In patch-clamp work, channel activity is measured electrically.
The target of data set [8] is T7, PANX1 (PANX1WT) (Homo sapiens, UniProt Q96RD7, W74R/R75D).
T7 construct: full-length; C-terminal TEV site-eGFP-8xHis, GFP/His cut by TEV for purified protein; HEK293S GnTI- (BacMam), GDN-solubilised homoheptamer; transiently transfected HEK293 for patch clamp
Nature of the data set: whole-cell patch clamp, transfected HEK293. The conditions noted are these: pH 7.4, 23 °C; 100 µM in bath. Format: cell-based.

Data set [9] concerns the target T4, PANX1 (PANX1WT). Nature of the data set: whole-cell patch clamp, transfected HEK293. The note with it: pH 7.4, 23 °C; 100 µM in bath. Format: cell-based.
Data set [10] concerns the molecule itself. Nature of the data set: cryo-EM structure; purified channel in GDN detergent, 25 mM Tris pH 8.0, 100 mM KCl, 1% glycerol, 5 mg/ml; 1 mM ATP added for PANX3; C7 symmetry imposed.

T4 sequence (Q96RD7 whole entry R217H): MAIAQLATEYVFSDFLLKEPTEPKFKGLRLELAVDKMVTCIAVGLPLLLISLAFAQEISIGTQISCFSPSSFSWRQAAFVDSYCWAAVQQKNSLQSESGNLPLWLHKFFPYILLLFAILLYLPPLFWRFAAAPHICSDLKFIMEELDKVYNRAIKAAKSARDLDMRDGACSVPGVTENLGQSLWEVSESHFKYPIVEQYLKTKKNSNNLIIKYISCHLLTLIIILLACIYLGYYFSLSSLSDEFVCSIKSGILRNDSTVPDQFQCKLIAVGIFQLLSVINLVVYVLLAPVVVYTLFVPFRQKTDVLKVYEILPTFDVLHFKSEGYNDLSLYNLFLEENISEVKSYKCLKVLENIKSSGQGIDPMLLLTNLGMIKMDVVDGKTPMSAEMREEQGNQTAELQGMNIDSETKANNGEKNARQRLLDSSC
T3 sequence (Q96RD7 whole entry K24A): as the sequence (Q96RD7 whole entry R217H) above, with K24A, H217R counted along it
T1 sequence (Q96RD7 whole entry W74R/R75D): as the sequence (Q96RD7 whole entry R217H) above, with W74R, R75D, H217R counted along it
T7 sequence (Q96RD7 whole entry W74R/R75D): as the sequence (Q96RD7 whole entry R217H) above, with W74R, R75D, H217R counted along it
T6 sequence (Q96RD7 whole entry R75A): as the sequence (Q96RD7 whole entry R217H) above, with R75A, H217R counted along it

Consider `Nc1ncnc2c1ncn2[C@@H]1O[C@H](CO[P@](=O)(O)O[P@](=O)(O)O[P@@](=O)(O)S)[C@@H](O)[C@H]1O` [ATP-γS], for which the Kd came to 67 ± 17 µM at PANX1 (PANX1WT) [1]; 69 µM at PANX3 (PANX3WT) [2]; 94 ± 15 µM at PANX1 (PANX1WT) [3]; 186 ± 70 µM on PANX1 (PANX1WT) [4]; 18 ± 4 µM at PANX1 (PANX1WT) [5] (read-out: apparent binding affinity); 114 ± 28 µM at PANX1 (PANX1WT) [6].

As to `Nc1ncnc2c1ncn2[C@@H]1O[C@H](COP(=O)(O)OP(=O)(O)OP(=O)(O)O)[C@@H](O)[C@H]1O` [ATP], the Kd on PANX1 (PANX1WT) [5] (read-out: affinity) was 21 ± 11 µM.

For the molecule `CC1(C)[C@@H](OC(=O)CCC(=O)O)CC[C@]2(C)[C@H]3C(=O)C=C4[C@@H]5C[C@@](C)(C(=O)O)CC[C@]5(C)CC[C@@]4(C)[C@]3(C)CC[C@@H]12` [carbenoxolone], the “inhibition of currents at 100 μM” value against PANX3 (PANX3WT) [7] is listed as “We observe weaker CBX sensitivity in PANX3, in comparison to PANX1”; at PANX1 (PANX1WT) [8] it was “decreased inhibition of PANX1WR/RD currents with CBX compared to PANX1WT”; on PANX1 (PANX1WT) [9], “inhibition of PANX1R217H currents by CBX similar to PANX1WT”.

B1: human pannexin 3 (PANX3), full length (natural protein, UniProt Q96QZ0 1-392, looked up)
chain: T2 sequence (Q96QZ0 1-392)
modifications: N-acetylglucosamine (NAG) at N71
notes: Pannexin 3, human, UniProt Q96QZ0, full length (392 residues); C-terminal TEV site (ENLYFQ) lies between the protein and eGFP-8xHis; residues of the site may be left after cleavage; Residues 1-24, 160-185 and 373-392 are not seen in the map; also called PANX3WT; source: HEK293S GnTI- cells, BacMam virus, purified (Ni-NTA, TEV cleavage, SEC) in GDN; not shown: eGFP, C-terminal, cleaved; 8x His, …
Take B1: the “stoichiometry N” value in [10] is 7.

B2: human pannexin 1 (PANX1), full length, wild type (natural protein, UniProt Q96RD7 1-426, looked up)
chain: MAIAQLATEYVFSDFLLKEPTEPKFKGLRLELAVDKMVTCIAVGLPLLLISLAFAQEISIGTQISCFSPSSFSWRQAAFVDSYCWAAVQQKNSLQSESGNLPLWLHKFFPYILLLFAILLYLPPLFWRFAAAPHICSDLKFIMEELDKVYNRAIKAAKSARDLDMRDGACSVPGVTENLGQSLWEVSESHFKYPIVEQYLKTKKNSNNLIIKYISCRLLTLIIILLACIYLGYYFSLSSLSDEFVCSIKSGILRNDSTVPDQFQCKLIAVGIFQLLSVINLVVYVLLAPVVVYTLFVPFRQKTDVLKVYEILPTFDVLHFKSEGYNDLSLYNLFLEENISEVKSYKCLKVLENIKSSGQGIDPMLLLTNLGMIKMDVVDGKTPMSAEMREEQGNQTAELQGMNIDSETKANNGEKNARQRLLDSSC
notes: Pannexin 1, human, UniProt Q96RD7, full length; C-terminal TEV site (ENLYFQ) lies between the protein and eGFP-8xHis; residues of the site may be left after cleavage; Only a map (no model) was deposited; also called PANX1WT; source: HEK293S GnTI- cells, BacMam virus, purified (Ni-NTA, TEV cleavage, SEC) in GDN; not shown: eGFP, C-terminal, cleaved; 8x His, C-terminal, cleaved
For B2, the “stoichiometry N” value in [10] worked out at 7.

B3: human pannexin 1 germline mutant R217H (natural protein, UniProt Q96RD7 1-426, looked up)
chain: B2 chain with R217H
notes: Pannexin 1, human, UniProt Q96RD7, full length, with the germline substitution R217H (TM3); TEV site residues may be left after cleavage; also called PANX1_(R217H); source: HEK293S GnTI- cells, BacMam virus, purified (Ni-NTA, TEV cleavage, SEC) in GDN; not shown: eGFP, C-terminal, cleaved; 8x His, C-terminal, cleaved
With B3, the binding result in data set [10] is on record as “binds”.

B4: human pannexin 1 double mutant W74R/R75D (natural protein, UniProt Q96RD7 1-426, looked up)
chain: B2 chain with W74R, R75D
notes: Pannexin 1, human, UniProt Q96RD7, full length, with W74R and R75D; TEV site residues may be left after cleavage; also called PANX1_(WR/RD); PANX1 W74R/R75D; source: HEK293S GnTI- cells, BacMam virus, purified (Ni-NTA, TEV cleavage, SEC) in GDN; not shown: eGFP, C-terminal, cleaved; 8x His, C-terminal, cleaved
Regarding B4, the binding result in data set [10] is “binds”.
